Assay results: patent US8055452B2, “Identification, monitoring and treatment of disease and characterization of biological condition using gene expression profiles” (Life Technologies Corporation, priority 2001, dated 2011)

How the values were obtained:
[1] = system: inflammation index (Inflammation Gene Expression Panel loci); experiment: Inflammation index in rheumatoid arthritis patients under therapy; assay type: in vivo, human
From the text: FIG. 17A further illustrates the consistency of inflammatory gene expression, illustrated here with respect to 7 loci of (of the Inflammation Gene Expression Panel of Table 1), in a population of 44 normal, undiagnosed blood donors. For each individual locus is shown the range of values lying within ±2 standard deviations of the mean expression value, which corresponds to 95% of a normally distributed population. Notwithstanding the great width of the confidence interval (95%), the measured gene expression value (ΔCT)—remarkably—still lies within 10% of the mean, regardless of the expression level involved. As described in further detail below, for a given biological condition an index can be constructed to provide a measurement of the condition. This is possible as a result of the conjunction of two circumstances: (i) there is a remarkable consistency of Gene Expression Profiles with respect to a biological condition across a population and (ii) there can be employed procedures that provide substantially reproducible measurement of constituents in a Gene Expression Panel giving rise to a Gene Expression Profile, under measurement conditions wherein specificity and efficiencies of amplification for all constituents of the panel are substantially similar and which therefore provides a measurement of a biological condition. Accordingly, a function of the expression values of representative constituent loci of FIG. 17A is here used to generate an inflammation index value, which is normalized so that a reading of 1 corresponds to constituent expression values of healthy subjects, as shown in the right-hand portion of FIG. 17A.
In FIG. 17B, an inflammation index value was determined for each member of a population of 42 normal undiagnosed blood donors, and the resulting distribution of index values, shown in the figure, can be seen to approximate closely a normal distribution, notwithstanding the relatively small population size. The values of the index are shown relative to a 0-based median, with deviations from the median calibrated in standard deviation units. Thus […] of the population lies within +1 and −1 of a 0 value.
FIG. 17C illustrates the use of the same index as FIG. 17B, where the inflammation median for a normal population has been set to zero and both normal and diseased subjects are plotted in standard deviation units relative to that median. An inflammation index value was determined for each member of a normal, undiagnosed population of 70 individuals (black bars). The resulting distribution of index values, shown in FIG. 17C, can be seen to approximate closely a normal distribution. Similarly, index values were calculated for individuals from two diseased population groups, (1) rheumatoid arthritis patients treated with methotrexate (MTX) who are about to change therapy to more efficacious drugs (e.g., TNF inhibitors) (hatched bars), and (2) rheumatoid arthritis patients treated with disease modifying anti-rheumatoid drugs (DMARDS) other than MTX, who are about to change therapy to more efficacious drugs (e.g., MTX). […] This figure thus illustrates the utility of an index to derived from Gene Expression Profile data to evaluate disease status and to provide an objective and quantifiable treatment objective. When these two populations were treated appropriately, index values from both populations returned to a more normal distribution (data not shown here).
This subject in fact was also on a regimen of an anti-inflammation steroid (prednisone) that was being tapered; within approximately one week after the inflammation index was sampled, the subject experienced a significant flare of clinical symptoms.

[2] = system: IL1A, IL1B, TNF, IFNG and IL10; experiment: Acute Inflammation Index from whole blood gene expression of treated human subject; assay type: in vivo; details: single patient with optic neuritis; oral prednisone at 60 mg per day tapered to 10 mg per day, after IV steroid
From the text: (§1) For measuring the amount of a particular RNA in a sample, we have used methods known to one of ordinary skill in the art to extract and quantify transcribed RNA from a sample with respect to a constituent of a Gene Expression Panel. (See detailed protocols below. Also see PCT application publication number WO 98/24935 herein incorporated by reference for RNA analysis protocols). Briefly, RNA is extracted from a sample such as a tissue, body fluid, or culture medium in which a population of a subject might be growing. For example, cells may be lysed and RNA eluted in a suitable solution in which to conduct a DNAse reaction. First strand synthesis may be performed using a reverse transcriptase. Gene amplification, more specifically quantitative PCR assays, can then conducted and the gene of interest size calibrated against a marker such as 18S rRNA (Hirayama et al., Blood 92, 1998: 46-52). Samples are measured in multiple duplicates, for example, 4 replicates. Relative quantitation of the mRNA is determined by the difference in threshold cycles between the internal control and the gene of interest In an embodiment of the invention, quantitative PCR is performed using amplification, reporting agents and instruments such as those supplied commercially by Applied Biosystems (Foster City, Calif.). […]

[3] = system: Inflammation Gene Expression Panel of Table 1 (24 of 48 loci); experiment: Inflammation Gene Expression Panel in whole blood after single oral dose of prednisone; assay type: in vivo; details: single human subject, single 60 mg oral dose
From the text: as §1

[4] = system: 5 genes of the Inflammation Gene Expression Panel; experiment: Whole blood samples after prednisone dose, challenged with lipopolysaccharide, gene expression profile; assay type: in vivo, human; details: challenged with 0.1 ng/ml lipopolysaccharide
Method: The samples were taken at the time of administration (t=0) of the prednisone, then at two and 24 hours after such administration. Each whole blood sample was challenged by the addition of 0.1 ng/ml of lipopolysaccharide (a Gram-negative endotoxin) and a gene expression profile of the sample, post-challenge, was determined.

[5] = system: inflammation index (Inflammation Gene Expression Panel loci); experiment: Inflammation index in subject with inflammatory bowel disease; assay type: in vivo, human; details: single subject with inflammatory bowel disease
From the text: FIG. 24 illustrates use of the inflammation index for assessment of a single subject suffering from inflammatory bowel disease, for whom treatment with Remicade was initiated in three doses. […] Again, the index, besides providing a measure of biological condition, is here used to measure the effectiveness of therapy (Remicade), as well as to provide a target for therapeutic intervention in terms of both dose and schedule.

[6] = system: inflammation index (Inflammation Gene Expression Panel loci); details: studies have shown; cited from earlier work
[7] = system: Inflammation 48A and 48B loci; bacterial Gene Expression Panel of 24 genes; experiment: Whole blood gene expression response to infectious agents or their products; assay type: cell-based; details: E. coli filtrate with added polymyxin B vs filtrate alone
From the text: FIGS. 27 through 41 illustrate the use of gene expression panels in early identification and monitoring of infectious disease. These figures plot the response, in expression products of the genes indicated, in whole blood, to the administration of various infectious agents or products associated with infectious agents. In each figure, the gene expression levels are “calibrated”, as that term is defined herein, in relation to baseline expression levels determined with respect to the whole blood prior to administration of the relevant infectious agent. […] The concentration change is shown ratiometrically, and the baseline level of 1 for a particular gene locus corresponds to an expression level for such locus that is the same, monitored at the relevant time after addition of the infectious agent or other stimulus, as the expression level before addition of the stimulus. […]
FIG. 27 uses a novel bacterial Gene Expression Panel of 24 genes, developed to discriminate various bacterial conditions in a host biological system. […] The final concentration immediately after administration of the stimulus was 100 ng/mL, and the ratiometric changes in expression, in relation to pre-administration levels, were monitored for each stimulus 2 and 6 hours after administration. […]
The responses were monitored at 2, 6, and 24 hours after administration. […]

[8] = 10 stable rheumatoid arthritis patients treated with Enbrel (FIG. 22)

CN(Cc1cnc2nc(N)nc(N)c2n1)c1ccc(C(=O)N[C@@H](CCC(=O)O)C(=O)O)cc1 [methotrexate]
inflammation index ([1]; 10 stable rheumatoid arthritis patients treated with methotrexate (FIG. 21)): elevated compared to normal
inflammation index values in comparison to the normal distribution ([1]; rheumatoid arthritis patients treated with MTX who are about to change therapy (FIG. 17C)): skewed upward

C[C@]12C=CC(=O)C=C1CC[C@@H]1[C@@H]2C(=O)C[C@@]2(C)[C@H]1CC[C@]2(O)C(=O)CO [prednisone]
acute inflammation index [2]: goes up
inflammatory gene expression relative to baseline ([3]; 2 hr post dose): decreased expression of most of inflammation-related gene loci
inflammatory gene expression relative to baseline ([3]; 24 hr post dose, loci reduced at 2 hours): elevated gene expression levels
inhibitory effect on gene expression of the 5 loci ([4]; 24 hours post administration): no longer apparent
number of the 5 loci with gene expression higher than at t=0 (rebound effect) ([4]; 24 hours post administration): 3
gene expression of the 5 loci in relation to t=0 ([4]; two-hour sample): dramatically reduced gene expression

Enbrel
inflammation index [1, 8]: comes much closer to normal
patients with inflammation index in the normal range [1, 8]: 80%

Remicade: another TNF inhibitor
inflammation index ([1]; 10 stable rheumatoid arthritis patients treated with Remicade (FIG. 23), all but one of the patients): at or below normal
inflammation index suggesting immunosuppressive response ([1]; two of the 10 rheumatoid arthritis patients treated with Remicade (FIG. 23)): abnormally low inflammation index
inflammation index ([5]; 24 hours after the first treatment): returned to the normal range
inflammation index ([5]; just prior to the second dose): elevated
inflammation index ([5]; prior to the third dose): in the normal range
infections in treated subjects [6]: associated with serious infections in some subjects

polymyxin B
effect on the response of IL1B locus to E. coli filtrate [7]: did not affect the response
